Laboratory results taken from ChEMBL document CHEMBL1157299, “Alkaloids from Eschscholzia californica and their capacity to inhibit binding of [3H]8-Hydroxy-2-(di-N-propylamino)tetralin to 5-HT1A receptors in Vitro” (J Nat Prod, 2006).
pEC50, pIC50, pKi: −log10 of the molar value. Activity calls are given as the source filed them. The calls are words filed in the database; no cut-off is given here. Where a SMILES comes first, the peptide text is derived from it. [ ]: non-standard residue; d: D form.

Assays:
[1] = molecular target: T1, 5-hydroxytryptamine receptor 1A (Homo sapiens, UniProt P08908); test: (§1) Displacement of [3H]8-OH-DPAT from human recombinant 5HT1A receptor expressed in CHO cells; assay type: cell-based
T1 sequence (P08908 whole entry): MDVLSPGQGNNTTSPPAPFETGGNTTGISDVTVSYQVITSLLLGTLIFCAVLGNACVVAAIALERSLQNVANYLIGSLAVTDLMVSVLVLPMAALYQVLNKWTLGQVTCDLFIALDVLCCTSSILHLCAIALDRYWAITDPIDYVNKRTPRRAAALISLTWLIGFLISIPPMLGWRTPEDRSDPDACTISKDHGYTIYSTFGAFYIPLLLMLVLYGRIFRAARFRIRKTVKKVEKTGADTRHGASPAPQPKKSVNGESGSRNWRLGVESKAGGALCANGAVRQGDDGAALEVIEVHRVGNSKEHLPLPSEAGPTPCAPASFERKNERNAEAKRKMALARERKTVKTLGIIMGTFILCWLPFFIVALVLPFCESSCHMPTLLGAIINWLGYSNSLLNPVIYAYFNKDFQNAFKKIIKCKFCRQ

Cytochrome P450 3A4 = Cytochrome P450 3A4 (Homo sapiens, UniProt P08684)
Chain of Cytochrome P450 3A4 (P08684 whole entry): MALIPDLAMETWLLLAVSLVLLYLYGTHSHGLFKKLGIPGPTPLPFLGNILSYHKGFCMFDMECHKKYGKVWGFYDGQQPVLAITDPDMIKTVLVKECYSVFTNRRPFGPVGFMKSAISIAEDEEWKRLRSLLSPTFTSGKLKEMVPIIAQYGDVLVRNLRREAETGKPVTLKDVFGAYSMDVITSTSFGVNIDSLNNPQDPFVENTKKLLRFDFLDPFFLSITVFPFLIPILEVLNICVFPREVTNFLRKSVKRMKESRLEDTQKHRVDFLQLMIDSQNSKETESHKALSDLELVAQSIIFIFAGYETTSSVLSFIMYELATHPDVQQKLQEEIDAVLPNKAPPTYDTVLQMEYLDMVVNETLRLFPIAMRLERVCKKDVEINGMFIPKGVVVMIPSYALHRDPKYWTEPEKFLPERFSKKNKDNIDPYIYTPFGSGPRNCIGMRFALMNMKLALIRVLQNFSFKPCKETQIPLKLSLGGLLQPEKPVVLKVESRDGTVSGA

Substance-P receptor = Substance-P receptor (Homo sapiens, UniProt P25103); test: Displacement of [3H]SR140333 from human recombinant NK1 receptor expressed in CHO cells; assay type: cell-based
Chain of Substance-P receptor (P25103 whole entry): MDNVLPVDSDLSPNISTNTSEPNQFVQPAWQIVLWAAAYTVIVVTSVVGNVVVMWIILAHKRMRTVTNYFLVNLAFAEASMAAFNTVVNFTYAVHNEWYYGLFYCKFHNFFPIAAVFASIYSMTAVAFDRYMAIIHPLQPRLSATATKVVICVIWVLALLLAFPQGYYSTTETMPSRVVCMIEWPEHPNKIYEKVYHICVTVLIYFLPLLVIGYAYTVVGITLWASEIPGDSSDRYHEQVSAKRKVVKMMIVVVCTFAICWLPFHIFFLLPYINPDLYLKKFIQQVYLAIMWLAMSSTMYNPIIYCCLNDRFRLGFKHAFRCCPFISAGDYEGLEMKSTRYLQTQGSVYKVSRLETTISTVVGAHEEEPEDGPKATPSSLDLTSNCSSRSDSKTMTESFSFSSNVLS

[2] = molecular target: T2, 5-hydroxytryptamine receptor 1A (Homo sapiens) (UniProt P08908); test: as §1; assay type: cell-based
T2 sequence (whole entry): T1 sequence (P08908 whole entry)

Substance-K receptor = molecular target: T3, Substance-K receptor (Homo sapiens, UniProt P21452); test: Displacement of [3H]SR48968 from human recombinant NK2 receptor expressed in CHO cells; assay type: cell-based
T3 sequence (P21452 whole entry): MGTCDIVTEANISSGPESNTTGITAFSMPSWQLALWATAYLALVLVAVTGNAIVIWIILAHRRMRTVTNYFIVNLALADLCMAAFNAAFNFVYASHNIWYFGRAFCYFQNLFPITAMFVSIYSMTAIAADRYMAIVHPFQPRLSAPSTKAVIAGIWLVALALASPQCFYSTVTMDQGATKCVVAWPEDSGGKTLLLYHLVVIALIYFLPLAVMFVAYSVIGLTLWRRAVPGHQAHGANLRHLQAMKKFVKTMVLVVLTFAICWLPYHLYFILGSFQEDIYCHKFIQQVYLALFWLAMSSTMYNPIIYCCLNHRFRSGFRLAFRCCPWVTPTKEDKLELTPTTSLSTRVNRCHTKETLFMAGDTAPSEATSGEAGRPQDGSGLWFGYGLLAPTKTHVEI

SMILES | pEC50 [1] | pIC50 (Cytochrome P450 3A4) | Activity [2] | also measured
CN1CCc2cc3c(cc2C(=O)Cc2ccc4c(c2C1)OCO4)OCO3 [PROTOPINE] | < 4.00 | < 4.10 |  | 
Ic1ccccc1CN[C@@H]1C2CCN(CC2)[C@@H]1C(c1ccccc1)c1ccccc1 (relative stereo) |  |  |  | pEC50 (Substance-P receptor): 7.61
COc1cc(-c2oc3cc(O)cc(O)c3c(=O)c2O[C@@H]2O[C@H](CO[C@@H]3O[C@@H](C)[C@H](O)[C@@H](O)[C@H]3O)[C@@H](O)[C@H](O)[C@H]2O)ccc1O [NARCISSIN] |  | < 4.10 |  | 
COc1cc2c(cc1O)C[C@H]1c3c(cc(OC)c(OC)c3-2)CCN1C | 6.80 |  |  | pKi [1]: 7.07
C[N+]1(C)[C@H]2Cc3cc4c(cc3[C@@H]1Cc1cc3c(cc12)COC3)OCO4 [CALIFORNIDINE] | < 4.00 | < 4.10 | inactive | 
CN1[C@H]2Cc3cc4c(cc3[C@@H]1Cc1cc3c(cc12)OCO3)OCO4 [ESCHOLTZINE] | 4.96 |  |  | pKi [1]: 5.22
CC(C)[C@H](NC(=O)[C@@H](Cc1c[nH]c2ccccc12)NC(=O)[C@H](Cc1ccc(O)cc1)NC(=O)[C@@H](N)CC(=O)O)C(=O)N[C@H](Cc1c[nH]c2ccccc12)C(=O)N[C@H](Cc1c[nH]c2ccccc12)C(=O)N[C@@H](CCCCN)C(N)=O (H-DY[dW]V[dW][dW]K-NH2) |  |  |  | pEC50 (Substance-K receptor): 7.11
COc1cc2c(cc1O)[C@@H]1Cc3cc4c(cc3[C@H](C2)N1C)OCO4 [CARYACHINE] | 5.05 |  | 5 µM | 
O=c1c(O)c(-c2ccc(O)c(O)c2)oc2cc(O)cc(O)c12 [QUERCETIN] | < 4.00 |  | inactive | 
